Measured values taken from the NIST ThermoML archive (doi:10.1021/acs.jced.7b01125).

Test: xn = mol fraction of the nth substance listed
Details: Gas, Buoyancy - hydrostatic balance with magnetic suspension - one sinker

[HH] [hydrogen] + C
Details | mass density [kg/m3]
324.96 K, 10000 kPa, x2 = 0.9 | 58.331
324.96 K, 11000 kPa, x2 = 0.4997 | 36.202
324.96 K, 11001 kPa, x2 = 0.9 | 64.438
324.96 K, 12002 kPa, x2 = 0.4997 | 39.381
324.96 K, 12003 kPa, x2 = 0.9 | 70.531
324.96 K, 12999 kPa, x2 = 0.4997 | 42.522
324.96 K, 13002 kPa, x2 = 0.9 | 76.592
324.96 K, 14000 kPa, x2 = 0.4997 | 45.642
324.96 K, 14001 kPa, x2 = 0.9499 | 88.324
324.96 K, 14003 kPa, x2 = 0.9 | 82.625
324.96 K, 14998 kPa, x2 = 0.4997 | 48.72
324.96 K, 15000 kPa, x2 = 0.9 | 88.578
324.96 K, 15003 kPa, x2 = 0.9499 | 94.801
324.96 K, 15999 kPa, x2 = 0.4997 | 51.775
324.96 K, 16001 kPa, x2 = 0.9 | 94.491
324.96 K, 16003 kPa, x2 = 0.9499 | 101.187
324.96 K, 16999 kPa, x2 = 0.4997 | 54.795
324.96 K, 16999 kPa, x2 = 0.9 | 100.301
324.96 K, 17994 kPa, x2 = 0.4997 | 57.761
324.96 K, 18000 kPa, x2 = 0.9499 | 113.635
324.96 K, 18006 kPa, x2 = 0.9 | 106.065
324.96 K, 19001 kPa, x2 = 0.9 | 111.659
324.96 K, 19002 kPa, x2 = 0.4997 | 60.728
324.96 K, 19004 kPa, x2 = 0.9499 | 119.703
324.96 K, 19631 kPa, x2 = 0.4997 | 62.562
324.96 K, 19902 kPa, x2 = 0.9 | 116.626
324.96 K, 19924 kPa, x2 = 0.9499 | 125.148
324.97 K, 999 kPa, x2 = 0.9499 | 5.733
324.97 K, 1999 kPa, x2 = 0.9499 | 11.594
324.97 K, 2985 kPa, x2 = 0.9499 | 17.488
324.97 K, 3998 kPa, x2 = 0.9499 | 23.665
324.97 K, 4999 kPa, x2 = 0.9499 | 29.867
324.97 K, 5999 kPa, x2 = 0.9499 | 36.165
324.97 K, 6999 kPa, x2 = 0.9499 | 42.544
324.97 K, 7999 kPa, x2 = 0.9499 | 49.004
324.97 K, 10000 kPa, x2 = 0.9499 | 62.076
324.97 K, 11004 kPa, x2 = 0.9499 | 68.681
324.97 K, 12002 kPa, x2 = 0.9499 | 75.249
324.97 K, 13002 kPa, x2 = 0.9499 | 81.811
324.97 K, 17001 kPa, x2 = 0.9499 | 107.464
349.95 K, 999 kPa, x2 = 0.9 | 5.061
349.95 K, 999 kPa, x2 = 0.9499 | 5.309
349.95 K, 1003 kPa, x2 = 0.4997 | 3.109
349.95 K, 1999 kPa, x2 = 0.9 | 10.188
349.95 K, 1999 kPa, x2 = 0.9499 | 10.702
349.95 K, 2004 kPa, x2 = 0.4997 | 6.207
349.95 K, 2985 kPa, x2 = 0.9 | 15.301
349.95 K, 2999 kPa, x2 = 0.9499 | 16.173
349.95 K, 3002 kPa, x2 = 0.4997 | 9.284
349.95 K, 3999 kPa, x2 = 0.9 | 20.614
349.95 K, 4000 kPa, x2 = 0.9499 | 21.712
349.95 K, 4004 kPa, x2 = 0.4997 | 12.364
349.95 K, 4999 kPa, x2 = 0.9 | 25.902
349.95 K, 4999 kPa, x2 = 0.9499 | 27.309
349.95 K, 5003 kPa, x2 = 0.4997 | 15.42
349.95 K, 5998 kPa, x2 = 0.9 | 31.226
349.95 K, 5998 kPa, x2 = 0.9499 | 32.957
349.95 K, 6002 kPa, x2 = 0.4997 | 18.469
349.95 K, 6998 kPa, x2 = 0.9 | 36.584
349.95 K, 7000 kPa, x2 = 0.9499 | 38.671
349.95 K, 7001 kPa, x2 = 0.4997 | 21.49
349.95 K, 7998 kPa, x2 = 0.9499 | 44.399
349.95 K, 7999 kPa, x2 = 0.9 | 41.97
349.95 K, 8001 kPa, x2 = 0.4997 | 24.491
349.95 K, 8997 kPa, x2 = 0.9 | 47.361
349.95 K, 8997 kPa, x2 = 0.9499 | 50.163
349.95 K, 9000 kPa, x2 = 0.4997 | 27.473
349.95 K, 9996 kPa, x2 = 0.9499 | 55.938
349.95 K, 9999 kPa, x2 = 0.4997 | 30.433
349.95 K, 10000 kPa, x2 = 0.9 | 52.782
349.95 K, 10999 kPa, x2 = 0.9499 | 61.741
349.95 K, 11000 kPa, x2 = 0.9 | 58.181
349.95 K, 11001 kPa, x2 = 0.4997 | 33.381
349.95 K, 11995 kPa, x2 = 0.4997 | 36.281
349.95 K, 11997 kPa, x2 = 0.9499 | 67.507
349.95 K, 12003 kPa, x2 = 0.9 | 63.582
349.95 K, 12996 kPa, x2 = 0.4997 | 39.178
349.95 K, 12998 kPa, x2 = 0.9499 | 73.267
349.95 K, 13000 kPa, x2 = 0.9 | 68.93
349.95 K, 13993 kPa, x2 = 0.4997 | 42.035
349.95 K, 13994 kPa, x2 = 0.9 | 74.229
349.95 K, 13998 kPa, x2 = 0.9499 | 78.993
349.95 K, 14997 kPa, x2 = 0.9499 | 84.669
349.95 K, 14998 kPa, x2 = 0.9 | 79.534
349.95 K, 15001 kPa, x2 = 0.4997 | 44.896
349.95 K, 15997 kPa, x2 = 0.9 | 84.764
349.95 K, 15998 kPa, x2 = 0.4997 | 47.697
349.95 K, 15998 kPa, x2 = 0.9499 | 90.284
349.95 K, 16997 kPa, x2 = 0.4997 | 50.454
349.95 K, 16998 kPa, x2 = 0.9499 | 95.842
349.95 K, 17000 kPa, x2 = 0.9 | 89.954
349.95 K, 17989 kPa, x2 = 0.4997 | 53.192
349.95 K, 17998 kPa, x2 = 0.9499 | 101.317
349.95 K, 19002 kPa, x2 = 0.4997 | 55.94
349.95 K, 19002 kPa, x2 = 0.9499 | 106.734
349.95 K, 19350 kPa, x2 = 0.9 | 101.832
349.95 K, 19873 kPa, x2 = 0.9499 | 111.352
349.95 K, 19933 kPa, x2 = 0.4997 | 58.441
